Active and inactive are the calls of the source. No cut-off for these calls is given here.

In test [1] the target is T1, Oxysterols receptor LXR-alpha (Homo sapiens) (UniProt Q13133).
T1 sequence (whole entry): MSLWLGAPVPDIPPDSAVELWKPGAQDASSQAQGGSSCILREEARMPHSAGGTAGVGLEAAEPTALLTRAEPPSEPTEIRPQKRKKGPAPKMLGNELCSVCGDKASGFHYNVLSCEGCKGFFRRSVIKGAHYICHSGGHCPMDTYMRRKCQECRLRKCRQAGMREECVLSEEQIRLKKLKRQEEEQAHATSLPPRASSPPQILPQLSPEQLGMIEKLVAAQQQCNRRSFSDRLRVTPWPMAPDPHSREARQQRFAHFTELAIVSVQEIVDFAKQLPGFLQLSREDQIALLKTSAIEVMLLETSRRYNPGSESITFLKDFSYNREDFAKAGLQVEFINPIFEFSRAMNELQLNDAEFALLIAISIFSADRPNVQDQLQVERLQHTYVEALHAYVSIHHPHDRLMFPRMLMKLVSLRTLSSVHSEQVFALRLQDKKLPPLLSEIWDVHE
As to the kind of experiment: Transactivation of LXRalpha.

Test [2] concerns the target Retinoic acid receptor RXR-alpha/oxysterols receptor LXR-alpha (Homo sapiens) (UniProt P19793+Q13133). As to the kind of experiment: Transactivation of LXRalpha/RXRalpha. Type of test: protein-complex assay.
Test [3] concerns the target T2, Retinoic acid receptor alpha (Homo sapiens) (UniProt P10276).
T2 sequence (whole entry): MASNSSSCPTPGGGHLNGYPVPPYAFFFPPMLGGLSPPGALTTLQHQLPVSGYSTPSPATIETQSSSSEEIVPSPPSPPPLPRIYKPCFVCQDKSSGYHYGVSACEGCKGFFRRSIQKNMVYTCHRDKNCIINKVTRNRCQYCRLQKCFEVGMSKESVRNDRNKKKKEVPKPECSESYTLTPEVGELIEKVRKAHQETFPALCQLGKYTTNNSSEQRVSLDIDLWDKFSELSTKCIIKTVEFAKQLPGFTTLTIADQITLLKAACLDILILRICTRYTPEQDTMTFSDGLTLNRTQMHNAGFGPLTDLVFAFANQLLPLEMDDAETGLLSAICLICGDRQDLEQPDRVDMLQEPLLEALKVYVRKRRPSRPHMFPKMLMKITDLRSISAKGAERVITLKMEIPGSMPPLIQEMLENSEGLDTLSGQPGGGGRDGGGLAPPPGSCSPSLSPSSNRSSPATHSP
As to the kind of experiment: Transactivation of RARalpha in human COS7 cells at 10 uM by luciferase reporter gene assay. The class given is cell-based. The conditions noted are these: COS-7.

The target in test [4] is T3, Peroxisome proliferator-activated receptor gamma (Homo sapiens) (UniProt P37231).
T3 sequence (whole entry): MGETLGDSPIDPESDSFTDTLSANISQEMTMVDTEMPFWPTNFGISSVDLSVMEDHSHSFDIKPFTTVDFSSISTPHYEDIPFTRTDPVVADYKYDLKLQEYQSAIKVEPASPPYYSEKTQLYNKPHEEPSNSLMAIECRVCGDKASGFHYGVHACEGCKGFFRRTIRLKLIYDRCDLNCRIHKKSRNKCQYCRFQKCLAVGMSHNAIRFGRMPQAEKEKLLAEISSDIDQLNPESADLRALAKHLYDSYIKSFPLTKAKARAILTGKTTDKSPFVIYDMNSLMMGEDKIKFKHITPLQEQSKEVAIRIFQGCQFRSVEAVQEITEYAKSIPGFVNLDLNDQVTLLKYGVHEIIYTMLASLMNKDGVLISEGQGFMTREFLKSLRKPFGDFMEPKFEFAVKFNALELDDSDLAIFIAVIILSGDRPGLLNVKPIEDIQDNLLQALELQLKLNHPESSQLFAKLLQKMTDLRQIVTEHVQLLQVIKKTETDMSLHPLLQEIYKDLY
The test is described as follows: Transactivation of PPARgamma.

In test [5] the target is RXR alpha/PPAR gamma (Homo sapiens) (UniProt P37231+P19793). The test is described as follows: Transactivation of PPARgamma/RXRalpha heterodimer. Type of test: protein-complex assay.
The target of test [6] is T4, Retinoic acid receptor RXR-alpha (Homo sapiens, UniProt P19793).
T4 sequence (P19793 whole entry): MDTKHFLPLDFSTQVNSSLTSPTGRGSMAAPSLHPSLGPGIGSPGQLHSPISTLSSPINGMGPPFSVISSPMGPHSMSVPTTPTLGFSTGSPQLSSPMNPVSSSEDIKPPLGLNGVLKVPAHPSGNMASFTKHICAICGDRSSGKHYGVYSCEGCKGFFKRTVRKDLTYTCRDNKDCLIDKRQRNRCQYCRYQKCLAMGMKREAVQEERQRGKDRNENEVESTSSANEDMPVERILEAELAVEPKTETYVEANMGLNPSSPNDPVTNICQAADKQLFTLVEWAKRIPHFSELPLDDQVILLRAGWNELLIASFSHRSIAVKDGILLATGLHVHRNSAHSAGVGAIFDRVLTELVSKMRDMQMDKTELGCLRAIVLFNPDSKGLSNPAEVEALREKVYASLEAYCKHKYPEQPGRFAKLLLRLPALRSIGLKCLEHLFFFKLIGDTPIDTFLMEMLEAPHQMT
The test is described as follows: Agonist activity at RXRalpha by luciferase reporter gene assay. Type of test: functional. (In general: A reporter such as luciferase makes a cellular process visible.)

Test [7] addresses T5, Retinoic acid receptor RXR-alpha (Homo sapiens) (UniProt P19793).
T5 sequence (whole entry): T4 sequence (P19793 whole entry)
As to the kind of experiment: Transactivation of RXRalpha in human COS7 cells at 10 uM by luciferase reporter gene assay. The conditions noted are these: COS-7. Type of test: cell-based.

As a reminder, the EC50 is the concentration needed to bring the measured effect to its halfway point. As for `CCN(c1ccc2c(c1)C(C)(C)CCC2(C)C)c1ccc(C(=O)O)cn1`, the outcome in test [1], in test [3] and in test [4] was inactive. Further, the Activity in test [2] and in test [5] was 60% throughout. In test [6], this compound showed an EC50 of 0.00528 µM.
Consider `CCN(c1ccc2c(c1)C(C)(C)CCC2(C)C)c1ccc(-c2nnn[nH]2)cn1`, for which the outcome in test [1], in test [3] and in test [4] was inactive. The Activity in test [2] was found to be 60%; in test [5] it was 40%. Further, the response in test [6] was half-maximal at 0.205 µM (EC50).
On to `CCN(c1ccc2c(c1)C(C)(C)CCC2(C)C)c1ccc(C(=O)NO)cn1`, for which the outcome in test [1], in test [3] and in test [4] was inactive. The Activity in test [2] is 50%; in test [5], 20%.
With `CCN(c1ccc2c(c1)C(C)(C)CCC2(C)C)c1ccc(P(=O)(O)O)cn1`, the outcome in test [3] and in test [7] was inactive.

These data come from ChEMBL document CHEMBL1221250, “Modification at the acidic domain of RXR agonists has little effect on permissive RXR-heterodimer activation” (Bioorg Med Chem Lett, 2010).
